{
  "source": "patent US20060009478A1",
  "about": "“Methods for the treatment of back pain” (priority 2003, published 2006)",
  "key": {"[1]": {"test_system": "patients with moderate to severe chronic pain due to osteoarthritis of the hip or knee", "experiment": "WOMAC Osteoarthritis Index (pain, stiffness, physical function subscales, total score), 3-week osteoarthritis study", "format": "in vivo, human", "conditions": "LOCF; for WOMAC osteoarthritis physical function subscale, actual value, mean / WOMAC osteoarthritis physical function subscale, actual value, median / WOMAC osteoarthritis stiffness subscale, actual value, mean / WOMAC osteoarthritis stiffness subscale, actual value, median / WOMAC osteoarthritis total score, actual value, mean / WOMAC osteoarthritis total score, actual value, median / WOMAC osteoarthritis pain subscale, actual value, mean / WOMAC osteoarthritis pain subscale, actual value, median: intent to treat population", "source_text": "Back pain can be associated with an arthritic condition or inflammation associated with chronic conditions. […] The methods comprise administering to a human subject an amount of an opioid antagonist or the combination of an opioid agonist and an opioid antagonist that is effective to enhance potency of the agonist and/or to alleviate one or more symptoms or signs of an arthritic condition or inflammation associated with a chronic condition, including for example, as measured by a suitable index, scale or measure. The attenuation of one or more symptoms or signs of an arthritic condition or of inflammation associated with a chronic condition may be measured on the WOMAC Osteoarthritis Index or one of its subscales (in other words, the pain, stiffness, or physical function subscales of the WOMAC Osteoarthritis Index). Any suitable version of the WOMAC OA Index may be used, including, for example, Version 3.0 or Version 3.1. Any suitable scale may be used as well. The WOMAC OA Index is available in Likert and Visual Analog scaled formats, either of which may be employed in the present methods. […] The WOMAC values represent a subjective surrogate marker. Alternatively or additionally, the attenuation of one or more symptoms or signs may be measured on another suitable index, scale or measure, such the Australian/Canadian (AUSCAN) Osteoarthritis Hand Index or the Osteoarthritis Global Index (OGI). The AUSCAN 3.1 Index and User Guide are currently available from http://www.womac.org/contact/index.cfm, as are the WOMAC 3.1 Osteoarthritis Index and User Guide. Another suitable measure of attenuation is the Definition of Improvement in Rheumatoid Arthritis described in Felson et al., Arthritis & Rheumatism 38:727-735 (1995) incorporated herein by reference. This measure, which also may be designated as the ACR (American College of Rheumatology) 20 improvement, is a composite defined as both improvement of 20% in the number of tender and number of swollen joints, and a 20% improvement in three of the following five: patient global, physician global, patient pain, patient function assessment, and C-reactive protein (CRP). Another suitable measure is described by Paulus et al., Arthritis & Rheumatism 33:477-484 (1990) which is incorporated herein by reference. Paulus et al. provides a definition of improvement based on a set of measures that discriminate between active second-line drug treatment and placebo. These include a 20% improvement in morning stiffness, erythrocyte sedimentation rate (ESR), joint tenderness score, and joint swelling score and improvement by at least 2 grades on a 5-grade scale (or from grade 2 to grade 1) for patient and physician global assessments of current disease severity. Current disease severity can be measured in a variety of ways, including patient or physician global assessments, patient or physician assessments of joint tenderness, joint swelling stiffness, pain, or physical function, cytokine levels, B-cell or T-cell subtype ratios, erythrocyte sedimentation rate (ESR), or C-reactive protein. Suitable measures of attenuation of one or more symptoms or signs, of inhibiting the progression of an arthritic condition or chronic condition, or of reversing tissue or cellular damage include measuring current disease severity. Other indexes, definitions, measures, or scales may also be used for measuring attenuation of one or more symptoms or signs, inhibition of progression, or reversal of tissue or cellular damage.\nA daily diary was to be utilized to record overall pain intensity (PI) and other signs and symptoms."}, "[2]": {"test_system": "patients with moderate to severe chronic low back pain", "experiment": "AE days and average AE days of opioid associated AEs, low back pain study", "conditions": "ITT population"}, "[3]": {"conditions": "(total days with AE)/(days on study drug)"}, "[4]": {"conditions": "AE stop date − AE start date + 1"}},
  "data": [
    {"smiles": "COc1ccc2c3c1O[C@H]1C(=O)CC[C@@]4(O)[C@@H](C2)N(C)CC[C@]314", "note": "[OXY QID, oxycodone]", "values": [
      {"measurement": "WOMAC osteoarthritis pain subscale, actual value at Week 1, mean", "setting": "[1]; ITT", "value": 263.2},
      {"measurement": "WOMAC osteoarthritis pain subscale, actual value at Week 1, median", "setting": "[1]; ITT", "value": 279.0},
      {"measurement": "WOMAC osteoarthritis physical function subscale, actual value, mean", "setting": "[1]; Week 1", "value": 891.8},
      {"measurement": "WOMAC osteoarthritis physical function subscale, actual value, median", "setting": "[1]; Week 1", "value": 930.5},
      {"measurement": "WOMAC osteoarthritis stiffness subscale, actual value, mean", "setting": "[1]; Week 1", "value": 120.3},
      {"measurement": "WOMAC osteoarthritis stiffness subscale, actual value, median", "setting": "[1]; Week 1", "value": 129.5},
      {"measurement": "WOMAC osteoarthritis total score, actual value, mean", "setting": "[1]; Week 1", "value": 1275.3},
      {"measurement": "WOMAC osteoarthritis total score, actual value, median", "setting": "[1]; Week 1", "value": 1312.5},
      {"measurement": "WOMAC osteoarthritis pain subscale, actual value, mean", "setting": "[1]; Week 2", "value": 245.0},
      {"measurement": "WOMAC osteoarthritis pain subscale, actual value, median", "setting": "[1]; Week 2", "value": 227.5},
      {"measurement": "WOMAC osteoarthritis physical function subscale, actual value, mean", "setting": "[1]; Week 2", "value": 847.6},
      {"measurement": "WOMAC osteoarthritis physical function subscale, actual value, median", "setting": "[1]; Week 2", "value": 880.0},
      {"measurement": "WOMAC osteoarthritis stiffness subscale, actual value, mean", "setting": "[1]; Week 2", "value": 111.4},
      {"measurement": "WOMAC osteoarthritis stiffness subscale, actual value, median", "setting": "[1]; Week 2", "value": 119.5},
      {"measurement": "WOMAC osteoarthritis total score, actual value, mean", "setting": "[1]; Week 2", "value": 1204.0},
      {"measurement": "WOMAC osteoarthritis total score, actual value, median", "setting": "[1]; Week 2", "value": 1222.5},
      {"measurement": "WOMAC osteoarthritis pain subscale, actual value, mean", "setting": "[1]; Week 3", "value": 238.7},
      {"measurement": "WOMAC osteoarthritis pain subscale, actual value, median", "setting": "[1]; Week 3", "value": 225.0},
      {"measurement": "WOMAC osteoarthritis physical function subscale, actual value, mean", "setting": "[1]; Week 3", "value": 820.0},
      {"measurement": "WOMAC osteoarthritis physical function subscale, actual value, median", "setting": "[1]; Week 3", "value": 867.0},
      {"measurement": "WOMAC osteoarthritis stiffness subscale, actual value, mean", "setting": "[1]; Week 3", "value": 106.3},
      {"measurement": "WOMAC osteoarthritis stiffness subscale, actual value, median", "setting": "[1]; Week 3", "value": 109.0},
      {"measurement": "WOMAC osteoarthritis total score, actual value, mean", "setting": "[1]; Week 3", "value": 1164.9},
      {"measurement": "WOMAC osteoarthritis total score, actual value, median", "setting": "[1]; Week 3", "value": 1191.0},
      {"measurement": "Average AE day for constipation, maximum", "setting": "[2]; [3]", "value": "(1.13)"},
      {"measurement": "Average AE day for constipation, mean", "setting": "[2]; [3]", "value": 0.24},
      {"measurement": "Average AE day for constipation, median", "setting": "[2]; [3]", "value": 0.05},
      {"measurement": "Average AE day for constipation, minimum", "setting": "[2]; [3]", "value": 0.00},
      {"measurement": "Average AE day for dizziness, maximum", "setting": "[2]; [3]", "value": 1.73},
      {"measurement": "Average AE day for dizziness, mean (SD)", "setting": "[2]; [3]", "value": "0.14 (0.281)"},
      {"measurement": "Average AE day for dizziness, median", "setting": "[2]; [3]", "value": 0.01},
      {"measurement": "Average AE day for dizziness, minimum", "setting": "[2]; [3]", "value": 0.00},
      {"measurement": "Average AE day for nausea, maximum", "setting": "[2]; [3]", "value": 2.00},
      {"measurement": "Average AE day for nausea, mean (SD)", "setting": "[2]; [3]", "value": "0.14 (0.266)"},
      {"measurement": "Average AE day for nausea, median", "setting": "[2]; [3]", "value": 0.03},
      {"measurement": "Average AE day for nausea, minimum", "setting": "[2]; [3]", "value": 0.00},
      {"measurement": "Average AE day for pruritus, maximum", "setting": "[2]; [3]", "value": 2.00},
      {"measurement": "Average AE day for pruritus, mean (SD)", "setting": "[2]; [3]", "value": "0.23 (0.355)"},
      {"measurement": "Average AE day for pruritus, median", "setting": "[2]; [3]", "value": 0.03},
      {"measurement": "Average AE day for pruritus, minimum", "setting": "[2]; [3]", "value": 0.00},
      {"measurement": "Average AE day for somnolence, maximum", "setting": "[2]; [3]", "value": 2.00},
      {"measurement": "Average AE day for somnolence, mean (SD)", "setting": "[2]; [3]", "value": "0.31 (0.392)"},
      {"measurement": "Average AE day for somnolence, median", "setting": "[2]; [3]", "value": 0.11},
      {"measurement": "Average AE day for somnolence, minimum", "setting": "[2]; [3]", "value": 0.00},
      {"measurement": "Average AE day for vomiting, maximum", "setting": "[2]; [3]", "value": 1.00},
      {"measurement": "Average AE day for vomiting, mean (SD)", "setting": "[2]; [3]", "value": "0.02 (0.087)"},
      {"measurement": "Average AE day for vomiting, median", "setting": "[2]; [3]", "value": 0.00},
      {"measurement": "Average AE day for vomiting, minimum", "setting": "[2]; [3]", "value": 0.00},
      {"measurement": "AE day for constipation, maximum", "setting": "[2]; [4]", "value": 114.00},
      {"measurement": "AE day for constipation, mean (SD)", "setting": "[2]; [4]", "value": "17.59 (27.733)"},
      {"measurement": "AE day for constipation, median", "setting": "[2]; [4]", "value": 3.00},
      {"measurement": "AE day for constipation, minimum", "setting": "[2]; [4]", "value": 0.00},
      {"measurement": "AE day for dizziness, maximum", "setting": "[2]; [4]", "value": 114.00},
      {"measurement": "AE day for dizziness, mean (SD)", "setting": "[2]; [4]", "value": "8.59 (18.871)"},
      {"measurement": "AE day for dizziness, median", "setting": "[2]; [4]", "value": 1.00},
      {"measurement": "AE day for dizziness, minimum", "setting": "[2]; [4]", "value": 0.00},
      {"measurement": "AE day for nausea, maximum", "setting": "[2]; [4]", "value": 118.00},
      {"measurement": "AE day for nausea, mean (SD)", "setting": "[2]; [4]", "value": "8.16 (16.511)"},
      {"measurement": "AE day for nausea, median", "setting": "[2]; [4]", "value": 2.00},
      {"measurement": "AE day for nausea, minimum", "setting": "[2]; [4]", "value": 0.00},
      {"measurement": "AE day for pruritus, maximum", "setting": "[2]; [4]", "value": 124.00},
      {"measurement": "AE day for pruritus, mean (SD)", "setting": "[2]; [4]", "value": "15.92 (28.817)"},
      {"measurement": "AE day for pruritus, median", "setting": "[2]; [4]", "value": 2.00},
      {"measurement": "AE day for pruritus, minimum", "setting": "[2]; [4]", "value": 0.00},
      {"measurement": "AE day for somnolence, maximum", "setting": "[2]; [4]", "value": 123.00},
      {"measurement": "AE day for somnolence, mean (SD)", "setting": "[2]; [4]", "value": "21.53 (32.137)"},
      {"measurement": "AE day for somnolence, median", "setting": "[2]; [4]", "value": 6.00},
      {"measurement": "AE day for somnolence, minimum", "setting": "[2]; [4]", "value": 0.00},
      {"measurement": "AE day for vomiting, maximum", "setting": "[2]; [4]", "value": 18.00},
      {"measurement": "AE day for vomiting, mean (SD)", "setting": "[2]; [4]", "value": "1.09 (2.839)"},
      {"measurement": "AE day for vomiting, median", "setting": "[2]; [4]", "value": 0.00},
      {"measurement": "AE day for vomiting, minimum", "setting": "[2]; [4]", "value": 0.00}
    ]}
  ]
}
